The numbers were not newly measured in publication PMC5643385, “Probing ligand recognition of the opioid pan antagonist AT-076 at nociceptin, kappa, mu, and delta opioid receptors through structure-activity relationships” (Scientific Reports, 2017), which cites them from elsewhere.

Broadly, the IC50 is the concentration that inhibits the measured activity by half.

Structures are written as SMILES.

This data set has as its system NOP. Set-up: method as in PMID 16451050. Conditions: Figure 1; cited from earlier work.

For the compound `O=C(NCCCN1CCC2(CC1)OCc1ccccc12)C1CCCN1Cc1ccccc1` (stereo not shown) [Compound C-24], the IC50 is 0.27 ± 0.038 nM.
